What was measured:
[1] = mn = molality of the nth substance listed, in mol/kg; settings: 101 kPa, Liquid; for mass density: Vibrating tube method
[2] = cn = amount concentration of the nth substance listed, in mol/dm3; settings: 298.15 K, 101 kPa, Liquid, Vibrating tube method

CNC(=O)[C@H](Cc1cnc[nH]1)NC(C)=O [N-acetyl-N'-methyl-L-alpha-histidinamide] + O
apparent molar heat capacity [J/K/mol], [1]
Settings	m1 = 0.0546	m1 = 0.0551	m1 = 0.0616	m1 = 0.0777	m1 = 0.091	m1 = 0.109	m1 = 0.1358	m1 = 0.137
298.15 K	595.6	594.5	600.5	595.1	596.7	598.8	598.5	597.9
303.15 K	606.8	610.2	612	609.8	608.7	610.9	612.6	608
308.15 K	621.8	618.1	620.9	621.4	619.4	622.5	621	624.6
313.15 K	634	628.9	631.6	629.5	635.5	630.5	637.1	631.6
318.15 K	640.4	637	642.3	638	640.8	637.5	638.9	643.6
323.15 K	648.2	652	651.7	648.2	646.7	654	650.6	650.9
328.15 K	657.3	659.5	657	656.4	656.4	660.5	660	656

[2]
Settings	mass density [kg/m3]
c1 = 0.03827	998.76
c1 = 0.04755	999.201
c1 = 0.04924	999.284
c1 = 0.05453	999.47
c1 = 0.05796	999.649
c1 = 0.06518	999.989
c1 = 0.0682	1000.14
c1 = 0.07517	1000.41
c1 = 0.07826	1000.59
c1 = 0.09152	1001.16
c1 = 0.0919	1001.16
c1 = 0.09948	1001.49
c1 = 0.1126	1002.02
c1 = 0.1188	1002.28

CNC(=O)CNC(C)=O [2-acetamido-N-methylacetamide] + O
[1]
Settings	apparent molar heat capacity [J/K/mol]	mass density [kg/m3]
298.15 K, m1 = 0.04565	–	998.056
298.15 K, m1 = 0.0479	328.9	–
298.15 K, m1 = 0.05924	–	998.352
298.15 K, m1 = 0.0715	328.6	–
298.15 K, m1 = 0.07804	–	998.754
298.15 K, m1 = 0.09293	–	999.062
298.15 K, m1 = 0.0958	327.8	–
298.15 K, m1 = 0.0987	–	999.177
298.15 K, m1 = 0.1439	326	–
298.15 K, m1 = 0.153	–	1000.32
298.15 K, m1 = 0.1615	–	1000.5
298.15 K, m1 = 0.1766	–	1000.79
298.15 K, m1 = 0.1889	–	1001.04
298.15 K, m1 = 0.1912	324	–
303.15 K, m1 = 0.0479	334.9	–
303.15 K, m1 = 0.0715	336.1	–
303.15 K, m1 = 0.0958	334.3	–
303.15 K, m1 = 0.1439	333.6	–
303.15 K, m1 = 0.1912	330.6	–
308.15 K, m1 = 0.0479	343	–
308.15 K, m1 = 0.0715	343.3	–
308.15 K, m1 = 0.0958	342.7	–
308.15 K, m1 = 0.1439	343.1	–
308.15 K, m1 = 0.1912	342.7	–
313.15 K, m1 = 0.0479	349.6	–
313.15 K, m1 = 0.0715	350	–
313.15 K, m1 = 0.0958	349.6	–
313.15 K, m1 = 0.1439	350.6	–
313.15 K, m1 = 0.1912	350.9	–
318.15 K, m1 = 0.0479	357	–
318.15 K, m1 = 0.0715	358.4	–
318.15 K, m1 = 0.0958	359.1	–
318.15 K, m1 = 0.1439	358.2	–
318.15 K, m1 = 0.1912	360	–
323.15 K, m1 = 0.0479	360.1	–
323.15 K, m1 = 0.0715	361.7	–
323.15 K, m1 = 0.0958	361.6	–
323.15 K, m1 = 0.1439	361.4	–
323.15 K, m1 = 0.1912	363	–
328.15 K, m1 = 0.0479	365.8	–
328.15 K, m1 = 0.0715	366.7	–
328.15 K, m1 = 0.0958	367.2	–
328.15 K, m1 = 0.1439	369.7	–
328.15 K, m1 = 0.1912	369.1	–

— the NIST ThermoML archive (doi:10.1021/je2012555)
